How the values were obtained:
[1] = tested on: sheep body louse D. ovis; assay: Example 3, varying concentration of active: lice counts on sheep; type: in vivo, Damalinia ovis
Procedure: Testing for ectoparasite infestation was carried out by counting the number of parasites present in 20 partings taken on each side of the sheep (40 partings in total).
In order to determine the minimum effective concentration of active agent possible upon application of 150 mL/50 kg sheep, the following formulations were prepared: […]
For each of Examples 3A-E, the treatments were applied immediately after shearing along the backline in 4-6 strips (depending on the volume to be applied. Details are as follows:
Treatments were applied using the NZ Protector dial-a-dose drench/pour-on gun.
Once treated, each group was penned separately in electrified paddocks where they were kept for the duration of the trial.
Lice counts were performed pre-shearing 7, 14, 21, 28, 35 and 42 days after treatment using the 20 partings per side technique.
Percentage reduction in lice counts was calculated using the change in lice counts for the control group as a correction factor, using the formula given in example 1.

[2] = Example 6, degree of translocation: diazinon levels in wool and skin scrapings; type: in vivo, sheep; details: for DIAZINON (PPM) - WHOLE WOLL BELLY-LINE MEAN / DIAZINON (PPM) - WHOLE WOLL MIDLINE MEAN: Example 6 formulation, 3mL per kg
Procedure: A 3 year old merino was shorn, weighed and treated immediately with the diazinon spray-on. It had not received any insecticide treatment for 12 months. The sheep weighed 37 kg and was treated with 110mL of the product. A wide band was applied from high on the neck, behind the ears, to the butt of the tail at a dosage rate of 3mL per kg bodyweight.
The animal was hand restrained during treatment and placed under cover in a pen with mesh floor and sides for the duration of the trial.
During and after treatment, the sheep had no contact with other treated animals and was not exposed to any rain.
On advice from the State Chemistry Laboratory, Department of Agriculture, Victoria, approximately 2cm square scrapings of wool and skin were taken as follows:
The values (PPM diazinon) are reported on a whole wool basis.
The approximate concentration in wool grease can be calculated on the basis of the average wool grease content of the wool is 18.4% w/w ie., multiply the individual results by a factor of 5.4.

Structure (SMILES): CCOP(=S)(OCC)Oc1cc(C)nc(C(C)C)n1 [Diazinon]
- eradication of the sheep body louse D. ovis ([1]; 10 mg/kg (0.33% w/w)): failed to eradicate
- eradication of the sheep body louse D. ovis ([1]; 15 mg/kg (0.5% w/w)): failed to eradicate
- DIAZINON (PPM) - WHOLE WOLL (MEAN VALUES) BELLY-LINE LEFT ([2]; 1 day post treatment): 407 PPM
- DIAZINON (PPM) - WHOLE WOLL (MEAN VALUES) BELLY-LINE RIGHT ([2]; 1 day post treatment): 190 PPM
- DIAZINON (PPM) - WHOLE WOLL (MEAN VALUES) MIDLINE LEFT ([2]; 1 day post treatment): 808 PPM
- DIAZINON (PPM) - WHOLE WOLL (MEAN VALUES) MIDLINE RIGHT ([2]; 1 day post treatment): 330 PPM
- DIAZINON (PPM) - WHOLE WOLL BELLY-LINE MEAN ([2]; 1 day post treatment): 298 PPM
- DIAZINON (PPM) - WHOLE WOLL MIDLINE MEAN ([2]; 1 day post treatment): 569 PPM
- DIAZINON (PPM) - WHOLE WOLL (MEAN VALUES) BELLY-LINE LEFT ([2]; 3 days post treatment): 185 PPM
- DIAZINON (PPM) - WHOLE WOLL (MEAN VALUES) BELLY-LINE RIGHT ([2]; 3 days post treatment): 112 PPM
- DIAZINON (PPM) - WHOLE WOLL (MEAN VALUES) MIDLINE LEFT ([2]; 3 days post treatment): 496 PPM
- DIAZINON (PPM) - WHOLE WOLL (MEAN VALUES) MIDLINE RIGHT ([2]; 3 days post treatment): 323 PPM
- DIAZINON (PPM) - WHOLE WOLL BELLY-LINE MEAN ([2]; 3 days post treatment): 148.5 PPM
- DIAZINON (PPM) - WHOLE WOLL MIDLINE MEAN ([2]; 3 days post treatment): 410 PPM
- DIAZINON (PPM) - WHOLE WOLL (MEAN VALUES) BELLY-LINE LEFT ([2]; 7 days post treatment): 287 PPM
- DIAZINON (PPM) - WHOLE WOLL (MEAN VALUES) BELLY-LINE RIGHT ([2]; 7 days post treatment): 216 PPM
- DIAZINON (PPM) - WHOLE WOLL (MEAN VALUES) MIDLINE LEFT ([2]; 7 days post treatment): 503 PPM
- DIAZINON (PPM) - WHOLE WOLL (MEAN VALUES) MIDLINE RIGHT ([2]; 7 days post treatment): 237 PPM
- DIAZINON (PPM) - WHOLE WOLL BELLY-LINE MEAN ([2]; 7 days post treatment): 251.2 PPM
- DIAZINON (PPM) - WHOLE WOLL MIDLINE MEAN ([2]; 7 days post treatment): 370 PPM
- diazinon in whole wool, belly-line right rump ([2]; Day 1): 53 PPM
- diazinon in the wool grease, belly-line right rump ([2]; Day 1, whole wool value multiplied by 5.4): 286 PPM

Reference: patent EP0680339B1, “ECTOPARASITICIDAL FORMULATION” (priority 1993, dated 1994)
